Data as given in patent publication US20250302788A1, “COMPOSITION COMPRISING CREATINE FOR USE IN THE TREATMENT OF POST VIRAL FATIGUE SYNDROME” (Alzchem Trostberg GmbH, priority 2022, published 2025).

Tests used:
Post-COVID patients = assay: MFI-20 fatigue test, Example 2; assay type: in vivo, human; details: plus breathing exercise
Procedure: The patient-reported outcomes for COVID-19-related signs and symptoms (e.g. headache, concentrating difficulties, anosmia, ageusia) were evaluated with VAS scale. Fatigue, comprising the conditions of the group general fatigue, physical fatigue, metal fatigue, reduced activity, and reduced motivation, was evaluated with a multidimensional fatigue inventory test (MFI-20 test, Smets E. M. et al., J. Psychosom. Res. 1995, 39 (3), 315).

[1] = both, human, in vivo, 3 months

Question: Which results are given for `CN(CC(=O)O)C(=N)N.O` [Creatine + Breathing Exercise, creatine monohydrate]?
Answer: General fatigue (MFI-20 score) (Post-COVID patients; 3 months): 12.3; Mental fatigue (MFI-20 score) (Post-COVID patients; 3 months): 11.5; Physical fatigue (MFI-20 score) (Post-COVID patients; 3 months): 12.2; Reduced activity (MFI-20 score) (Post-COVID patients; 3 months): 12.8; Reduced motivation (MFI-20 score) (Post-COVID patients; 3 months): 12.8; General fatigue (MFI-20 score) (Post-COVID patients; Baseline): 11.5; Mental fatigue (MFI-20 score) (Post-COVID patients; Baseline): 11.8; Physical fatigue (MFI-20 score) (Post-COVID patients; Baseline): 12.3; Reduced activity (MFI-20 score) (Post-COVID patients; Baseline): 12.5; Reduced motivation (MFI-20 score) (Post-COVID patients; Baseline): 13.5; Cohen's effect size (d) for creatine increment, right frontal grey matter [1]: 1.76; Cohen's effect size (d) for creatine increment, vastus medialis muscle [1]: 0.77
